Measurements taken from patent US8158589B2, “Peptides with the capacity to bind to transforming growth factor β1 (TGF-β1)” (Proyecto Biomedicine Cima, S.L., priority 2003, dated 2012).
Ends that are not written are not given here.

Experiments:
[1] = target: T1, TGF-β1 (Rattus norvegicus, UniProt P17246); experiment: Corneal fibrosis and haze after 1 N NaOH damage, topical eye drops, photographs analysed with ImageJ; format: in vivo, Long-Evans rats; details: fifth formulation eye drops, treated right eye vs control left eye
T1 construct: from tissue; host or cells: cornea of Long-Evans rats
Text: Male Long-Evans rats aged 10 weeks were used, divided into 5 groups: • Group 1: 12 rats, 6 treated with dexamethasone and 6 treated with mitomycin C • Group 2: 12 rats, 6 treated with p17 of the first formulation (see section 6.1.2.b) and 6 treated with p144 of the first formulation (see section 6.1.2.b) • Group 3: 12 rats, 6 treated with p17 of the second formulation (see section 6.1.2.b) and 6 treated with p144 of the second formulation (see section 6.1.2.b) • Group 4: 12 rats, 6 treated with p17 of the third formulation (see section 6.1.2.b) and 6 treated with p144 of the third formulation (see section 6.1.2.b) • Group 5: 12 rats, 6 treated with p17 of the fourth formulation (see section 6.1.2.b) and 6 treated with p144 of the fourth formulation (see section 6.1.2.b) • Group 6: 12 rats, 6 treated with p17 of the fifth formulation (see section 6.1.2.b) and 6 treated with p144 of the fifth formulation (see section 6.1.2.b)
To perform the damage in the cornea, the animals were anesthetized with isoflurane and a 5 mm Whatman paper disc impregnated in 1 N NaOH for 30 seconds was applied to them in the central part of the eye. After the damage, they were washed with abundant physiological saline serum and an antibiotic ointment was applied to them to prevent possible infections in the affected area.
After conducting several in vivo studies with the previously described groups of animals, it could be concluded that the chemical damage occurring after the application of NaOH for 30 seconds caused an excessive lesion for the study which was to be conducted, therefore it was decided to conduct new experiments reducing the time to 15 seconds.
It was randomly established that the left eye of each animal would act as a control and that the right eye would be the treated eye, such that the same animals acts as a control in addition to being treated. It must be pointed out that all the animals received antibiotic treatment in both eyes daily only during the first week of the study for the purposes of avoiding microbial keratitis.
Starting from 0.15% sodium hyaluronate (Hyabak 10 mL, Thea) without preservatives: • p144: 20 mg were dissolved in 5 ml of eye drops, 40 μl of saturated concentrated NaOH were incorporated, stirring and adding in portions of 5 μl. It was sonicated until solubilization. To adjust the pH, 500 μl of 1M Hepes were added, such that the pH changed from 10.5 to 7 • p144 control: 40 μl of saturated NaOH and 500 μl of 1 M HEPES (final concentration of HEPES 50 mM) • p17: 20 mg were dissolved in 5 ml of the eye drops, it was sonicated until complete solubilization and it was incorporated to the vial with a 10 ml syringe and a blue needle to perforate the filter of the contained (final concentration 2 mg/ml) • p17 control: non-manipulated eye drops • Note: The formulations were maintained at 4° C. throughout the study.
The administration of the treatment was initiated twenty-four hours after the damage. After that time a follow-up of the damage was performed, which consisted of taking photographs at days 0, 7, 14, 21, 28 and 35. To take the photographs the animals were anesthetized with isoflurane. Photographs were taken of both the control eye (left) and of the treated eye (right) with and without fluorescein. The photographs with fluorescein allowed to observe the evolution of the epithelial closure of the generated lesion, whereas the photographs without fluorescein show the evolution of the haze of the lesioned area. […]

[2] = target: T2, TGF-β1 (Homo sapiens, UniProt P01137); design: purchased R&D Systems; host or cells: added to IMR-90 human lung fibroblasts; details: lung fibroblasts, Dotor et al. Cytokine 2007; cited from earlier work
Target sequence in this assay (P01137 279-390 limits assumed): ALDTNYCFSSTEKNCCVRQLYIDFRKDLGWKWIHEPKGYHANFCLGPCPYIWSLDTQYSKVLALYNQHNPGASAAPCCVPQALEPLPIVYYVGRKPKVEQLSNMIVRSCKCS

[3] = target: T2, TGF-β1; experiment: Biopanning of phage-displayed 15-aa peptide library on biotinylated TGF-β1, number of colonies per sequence; format: binding; design: purchased Roche; host or cells: added to Mv-1-Lu (CCL-64) mink lung epithelial cells; details: clones carrying the sequence among 108 colonies after the last biopanning cycle; approximate indication of affinity for TGF-β1
Text: These libraries comprise a plurality of filamentous bacteriophages (M13), each one containing a peptide genetically fused to a protein of the virus envelope—in this case bound to the N-terminal end of envelope protein pIII (FIG. 1). […] In the phage libraries, the sequence encoding the peptide originates from a sequence degenerated in each one of the 15 positions with the 20 natural amino acids, thus allowing the presentation of 1.1×10^12 possible sequences of 15 amino acids in different phages. The physical ratio, 1:1, between the peptide sequence and the DNA encoding it within the bacteriophage allows the selection (from a broad range of variants) of those sequences that specifically bind to TGF-β1. This process is carried out via an in vitro selection protocol known as “biopanning”.
This technique involves incubating a set of phages representative (to practical effects) of all the 15-aa variants, in a plate blocked with streptavidin (10 μg/ml in 0.1 M NaHCO3, during 2 h at room temperature) to which biotinylated TGF-β1 is added. […] TGF-β1 contacts the peptides carried by the phages at a concentration of […]. After about 12 hours incubation, unbound phages are eliminated by 5 washings with PBS/Tween (phosphate buffered saline/polyoxyalkylene derivatives of sorbitan fatty acid esters). […] The eluted phages are then amplified by infection in a bacterial strain (E. coli). The process is repeated three cycles so that an enrichment in the content of phages which specifically bind, and with high affinity, to TGF-β1 is achieved (FIG. 3). […] Thus, the phages selected in each cycle show more and more affinity for TGF-β1. At the end of the process, phages which have been selected for their affinity for TGF-β1, are sequenced by using primers, after isolation by tetracycline resistance of the genetically modified phages after infecting E. coli cells. […] The number of times which a sequence is repeated, corresponding to a 15 amino acids peptide carried by each clone, from the total of sequenced colonies is an indication of the degree of relative affinity of said 15 amino acids sequence for TGF-β1.
The selection of clones, obtained from the “biopanning”, was carried out by selection of the bacterial colonies infected with the phages in the presence of a bacterial antibiotic; the bacteria resistance is acquired by a tetracycline resistance gene encoded by the phage genome. Thus, only those colonies infected with bacteriophages are able to grow. This means that each colony contains the genome of only one phage coding for only one peptide presented in its surface.
A total number of 108 colonies of phage-infected bacteria were obtained from the last selection cycle of “biopanning”. The sequence of the regions coding for the peptides present in the pIII protein was carried out using primers identified with SEQ ID NO: 23. This table also reflects the number of colonies (clones) carrying said sequences.
The number of clones (colonies) of each sequence gives an approximate indication of the degree of affinity of the peptide for TGF-β1, that is, the more colonies the more binding affinity.
Target sequence in this assay (P01137 279-390 limits assumed, species assumed): as the sequence (P01137 279-390 limits assumed) above

T1 sequence (P17246 279-390 limits assumed): as the sequence (P01137 279-390 limits assumed) above, with A75S counted along it

In the case of “KRIWFIPRSSWYERA [SEQ ID NO: 17, KRIWFIPRSSWYERA]”, the corneal haze [1] is listed as “clear decrease”, the “epithelial closure (fluorescein)” value [1] is listed as “clear decrease” and the “Smad2 phosphorylation induced by TGF-β1” value [2] is listed as “decreased”. It also gave a No. colonies [3] of 3.
